Source: US10563197B2, “Use of a combination of Dbait molecule and PARP inhibitors to treat cancer” (INSTITUT CURIE, priority 2015, dated 2020)

Experiments:
HeLa CTL KD = test: Cell survival, trypan blue counting; type: cell-based, human; settings: 4.80 μM of AsiDNA and/or 0.1 μM of Ola; day 6 after treatment
Experimental: (§3) Cells were grown according to the supplier's instructions. Cell lines were maintained at 37° C. in a humidified atmosphere at 5% CO2.
(§4) AsiDNA or PARPi cytotoxicity was measured by relative survival and cell death quantification. Adherent cells were seeded in 24-well culture plates at appropriate densities and incubated 24 hours at 37° C. before AsiDNA and/or PARPi addition. Cells were harvested day 6aftertreatment, stained with 0.4% trypan blue (Sigma Aldrich, Saint-Louis, USA) and counted with a Burker chamber. Cell survival was calculated as ratio of living treated cells to living mock-treated cells. Cell death was calculated as the number of dead cells on the total number of counted cells. Additivity of the toxicity was calculated by the product of cell survivals to AsiDNA and cell survivals to PARPi.

Hep2 = test: Cell survival, trypan blue counting; type: cell-based, human; settings: 4.80 μM of AsiDNA and/or 0.1 μM of Ola; day 6 after treatment
Experimental: as §3, §4

SK28 Lsh DNA-PKcs = test: Cell survival, trypan blue counting; type: cell-based, human; settings: 4.80 μM of AsiDNA and/or 0.1 μM of Ola; day 6 after treatment
Experimental: as §3, §4

MCF10A = test: Cell survival, trypan blue counting; type: cell-based, human; settings: 4.80 μM of AsiDNA and/or 0.1 μM of Ola; day 6 after treatment
Experimental: as §3, §4

[1] = test system: Breast cancer cell lines MDAMB231; test: Cell survival with DT01 and PARP inhibitors (Example 1, FIG. 1); type: cell-based, human; settings: DT01 100 or 333 μg/ml plus Olaparib 0.1, 1 μM or Veliparib 1, 10, 50 μM; 6 days
Experimental: Breast cancer cell lines MDAMB231 were treated with 100 μg/ml (Black, Squares) or 333 μg/ml (Grey, Crosses) of DT01 or no DT01 (Black, Diamond) and exposed to either 0, 0.1 and 1 μM of Olaparib (upper panel) or 1, 10 and 50 μM Veliparib (lower panel). Survival was measured 6 days after treatment using trypan blue to detect living cells. The data are presented as % of the non-treated control.
The human cell lines were grown in complete RPMI (Gibco, Cergy Pontoise, France) supplemented with 10% fetal bovine serum (ATGC, Orléans, France), 1% sodium pyruvate, streptomycin ([…]) and penicillin ([…]) (Invitrogen, Carlsbad, Calif., USA). Cells were maintained at 37° C. under a 5% CO2 atmosphere, at 100% humidity. Treatments were performed by adding nucleotides (DT01 and others) or/and PARP inhibitors at time zero in medium without serum. The medium was changed with fresh medium containing fetal bovine serum 24 hours after beginning of treatment. Cells were let to grow for 4 additional days (5 days after treatment), treated with trypsin and counted for total number of cells. Trypan blue (0.4%) was added for counting the living cells (uncolored) in the population.

HeLa BRCA2 SX = test: Cell survival, trypan blue counting; type: cell-based, human; settings: 4.80 μM of AsiDNA and/or 0.1 μM of Ola; day 6 after treatment
Experimental: as §3, §4

HeLa PARP1 KD = test: Cell survival, trypan blue counting; type: cell-based, human; settings: 4.80 μM of AsiDNA and/or 0.1 μM of Ola; day 6 after treatment
Experimental: as §3, §4

MO59J = test: Cell survival, trypan blue counting; type: cell-based, human; settings: 4.80 μM of AsiDNA and/or 0.1 μM of Ola; day 6 after treatment
Experimental: as §3, §4

HCT116 = test: Cell survival, trypan blue counting; type: cell-based, human; settings: 4.80 μM of AsiDNA and/or 0.1 μM of Ola; day 6 after treatment
Experimental: as §3, §4

BT20 = test: Cell death and proliferation; type: cell-based, human; settings: 0.1 μM Ola, 4.8 μM AsiDNA; sensitive = difference in % dead cells higher than two-fold
Experimental: (§1) Efficacy of Ola and AsiDNA was assessed by measuring cell death and proliferation in 12BC cell lines including 4BRCA-mutated cell lines (FIGS. 4A and B and FIG. 5). In addition, HeLa cells silenced for BRCA1 or BRCA2 genes were used as a control of BRCA mutation factor and 3 immortalized mammary cell lines (MCF10A, MCF12A and 184B5) as non-tumor controls. The concentration of the drugs (0.1 μM for Ola and 4.8 μM for AsiDNA) were chosen based on the 75-80% survival in the BC227 BRCA2^−/− mutant. […] Ola and AsiDNA treatments had no effect on the three control non-tumor cell lines.
(§2) Cells were grown according to the supplier's instructions.

HCC70 = test: Cell death and proliferation; type: cell-based, human; settings: 0.1 μM Ola, 4.8 μM AsiDNA; sensitive = difference in % dead cells higher than two-fold
Experimental: as §1, §2

MCF7 = test: Cell death and proliferation; type: cell-based, human; settings: 0.1 μM Ola, 4.8 μM AsiDNA; sensitive = difference in % dead cells higher than two-fold
Experimental: as §1, §2

MCF12A = test: Cell survival, trypan blue counting; type: cell-based, human; settings: 4.80 μM of AsiDNA and/or 0.1 μM of Ola; day 6 after treatment
Experimental: as §3, §4

[2] = test system: MD227 human breast cancer cell lines grafted in the fat pad; test: In vivo test on tumor growth, breast cancer xenograft; settings: DT01 2.5 mg intratumoral and 2.5 mg subcutaneous daily for 5 days; Olaparib 200 mg/kg/day per os, 5 daily sessions; or both
Experimental: Nude mice with xenografted MD227 human breast cancer cell lines grafted in the fat pad were treated by intratumoral administration of DT01 (5 mg/day) and Olaparib (200 mg/kg/day). Tumor growth was monitored (time zero: beginning of treatment). Eight to ten animals were treated per group (group 1: vehicle injection (grey line); group 2: DT01 (black dotted line); group 3: Olaparib (grey dotted line); group 4; DT01+ Olaparib (black line)). Treatment was administered 5 following days.
Human breast cancer xenograft tumors were obtained by injecting 4.10^6 tumor cells into the fat pad of adult female nude mice (Janvier, Le Genest Saint Isle, France). The animals were housed in the laboratory for at least 1 week before starting experiments. There were six animals per cage under controlled conditions of light and dark cycles (12 h: 12 h), relative humidity (55%), and temperature (21° C.). Food and tap water were available ad libitum. […] Mice were weighed every week and followed up for 280 days. For ethical reasons, the animals were sacrificed when tumors reached 1500 mm^3. The Local Committee on Ethics of Animal Experimentation approved all experiments.

53BP1 and Rad51 foci = 53BP1 and Rad51 foci immunostaining in MDAMB231 cells; type: cell-based, human; settings: MDAMB231, 24 h, 16 μM AsiDNA +/− 1 μM olaparib
Experimental: FIG. 9: Effect of the combined treatment AsiDNA and olaparib on DNA repair. Representative images of γH2AX (red) and Rad51 or 53BP1 (green) foci in MDAMB231 (A) or MCF10 (C) cells treated 24 h with Ola and/or AsiDNA. (B, D) Numbering of 53BP1 and Rad51 foci in 100 MDAMB231 cells (B) or MCF10A cells (D) 24 h after Ola and/or AsiDNA treatment. Red bars represent the mean values. (E, F) DNA damage monitored by alkaline comet assay 24 h after Ola and/or AsiDNA treatment in MDAMB231 (E) or MCF10A (F) cells. ns: not significant; *: p<0.05; ****: p<0.0001.
FIG. 10: AsiDNA inhibits irradiation-induced 53BP1 foci. Numbering of 53BP1 foci in 100 MDAMB231 cells 2 h after 10Gy irradiation, 22 h after prior treatment with AsiDNA and/or Ola. Red bars represent the mean values. *: p<0.05; **: p<0.01; ****: p<0.0001.
For immunostaining, MDAMB231 cells are seeded on cover slips (Menzel, Braunschweig, Germany) at a concentration of 5×10^5 cells and incubated at 37° C. during 1 day. Cells are then treated with 16 μM AsiDNA+/−1 μM olaparib. 24 h after treatment, cells are fixed for 20 min in 4% paraformaldehyde/Phosphate-Buffered Saline (PBS 1×), permeabilized in 0.5% Triton X-100 for 10 min, blocked with 2% bovine serum albumin/PBS 1× and incubated with primary antibody for 1 h at 4° C. […]

BC227 = test: Cell survival, trypan blue counting; type: cell-based, human; settings: 4.80 μM of AsiDNA and/or 0.1 μM of Ola; day 6 after treatment; listed as Ola
Experimental: as §3, §4

[3] = test system: 3 immortalized mammary cell lines (MCF10A, MCF12A and 184B5); test: Cell death and proliferation in non-tumor controls; type: cell-based, human; settings: 0.1 μM for Ola and 4.8 μM for AsiDNA
Experimental: as §1, §2

## O=C(c1cc(Cc2n[nH]c(=O)c3ccccc23)ccc1F)N1CCN(C(=O)C2CC2)CC1 [Olaparib, 4-[(3-[(4-cyclopropylcarbonyl)piperazin-4-yl]carbonyl)-4-fluorophenyl]methyl(2H)-phthalazin-1-one]
HeLa CTL KD
  Survival (%/NT): 97.2 %/NT
Hep2
  Survival (%/NT): 101 %/NT
SK28 Lsh DNA-PKcs
  Survival (%/NT): 80.9 %/NT
MCF10A
  Survival (%/NT): 86.2 %/NT
[1]
  survival to combined treatment with DT01 versus expected added effect of both single treatments: synergic effect
HeLa BRCA2 SX
  Survival (%/NT): 65.0 %/NT
HeLa PARP1 KD
  Survival (%/NT): 100.5 %/NT
MO59J
  Survival (%/NT): 87.5 %/NT
HCT116
  Survival (%/NT): 82.9 %/NT
BT20
  sensitivity to treatment: resistant to both treatments
HCC70
  sensitivity to treatment: resistant to both treatments
MCF7
  sensitivity to treatment: resistant to both treatments
MCF12A
  Survival (%/NT): 88.5 %/NT
[2]
  local skin toxicity or systemic toxicity: No local skin toxicity or systemic toxicity
53BP1 and Rad51 foci
  γH2AX, 53BP1 and Rad51 foci in the absence of DNA damaging treatment: induces the accumulation of DSBs
BC227
  Survival (%/NT): 75.3 %/NT
[3]
  effect on cell death and proliferation: no effect
